Three molecules from patent US9139796B2, “Methods of and formulations for reducing and inhibiting the growth of the concentration of microbes in water-based fluids and systems used with them” (Dow Global Technologies LLC, priority 2007, dated 2015) can be followed below.

Like-named read-outs stand apart in the source and are kept apart here. Some results are limits rather than exact numbers.

The subject of assay [1] is Staphylococcus aureus ATCC 6538, Klebsiella pneumoniae ATCC 8308, Bacillus subtillus ATCC 8473, Escherichia coli ATCC 11229. The assay is described as follows: Biocidal activity against standard aerobic bacterial strains in 0.85% NaCl solution, live count by serial dilution. The class given is cell-based. As to conditions: biocide alone; average for four standard aerobic bacteria; ~10^7 CFU/mL, 37° C. Here is the method: (§1) A sterile 0.85% NaCl solution is contaminated with bacterial inoculums at final bacterial concentrations of ˜10^7 CFU/mL. At day zero, either oxazolidine compound (BIOBAN™ CS-1135, 78% 4,4-dimethyloxazolidine in water, The Dow Chemical Company, or BIOBAN™ CS-1246, 97.5% 7-ethylbicyclooxazolidine in water, The Dow Chemical Company), THPS (AQUCAR™ THPS 75, 75% THPS in water, The Dow Chemical Company), or a combination of oxazolidine compound and THPS is added and the solution mixed well to provide a desired final concentration. […]
The testing protocol described above is used for the standard bacterial strains Staphylococcus aureus ATCC 6538, Klebsiella pneumoniae ATCC 8308, Bacillus subtillus ATCC 8473, Escherichia coli ATCC 11229.
(§2) The testing protocol described in Example 1 is used for aerobic bacteria and anaerobic sulfate reducing bacteria.

Assay [2] deals with oil/gas field-isolated sulfate reducing bacteria (SRB). The experiment in a line: Biocidal activity against oil/gas field-isolated sulfate reducing bacteria under anaerobic environment in deaerated salt solution. In kind it is cell-based. Here is the method:
as §1
The protocol used to test against oil/gas field-isolated sulfate reducing bacteria (SRB) is performed as described above, but under anaerobic environment (Bactron III anaerobic chamber) and using a deaerated sterile salt solution (1.2490 g NaCl, 2.9290 g NaHCO3, 0.1910 g Na2CO3, 0.0060 g Na2SO4, 0.033 g CaCl2, and 0.0590 g MgCl2.6H2O in 1 L water) instead of 0.85% NaCl solution.
as §2

[3] abbreviates: biocide alone, field anaerobic SRB, anaerobic chamber.

`CC1(C)COCN1` [4,4-dimethyloxazolidine]: the “Concentration required to achieve at least 3 log bacterial reduction in 1 hr” value in assay [1] was 272.04 ppm, active; in assay [2] (setting [3]), 1000 ppm, active.

`CCC12COCN1COC2` [7-ethylbicyclooxazolidine, 5-ethyl-1-aza-3,7-dioxabicyclo[3.3.0]octane]: the “Concentration required to achieve at least 3 log bacterial reduction in 1 hr” value is listed as 272.04 ppm, active in assay [1] and >1000 ppm, active in assay [2] (setting [3]).

For “tetrakis(hydroxymethyl)phosphonium sulfate [THPS]”, the “Concentration required to achieve at least 3 log bacterial reduction in 1 hr” value is recorded as 44.49 ppm, active in assay [1] and 33.35 ppm, active in assay [2].
